SMILES strings stand for the structures.

The values below come from patent publication US11524966B1 (Valo Early Discovery, Inc., priority 2017, dated 2022).

The target of one assay is T1, USP28 (USP28-5(1-1077)-TEV-6*His; LifeSensors) (Homo sapiens, UniProt Q96RU2).
T1 construct: construct USP28 (USP28-5(1-1077)-TEV-6*His; LifeSensors); TEV cleavage site (C); 6xHis (C); purchased LifeSensors
T1 sequence (Q96RU2 1-1077): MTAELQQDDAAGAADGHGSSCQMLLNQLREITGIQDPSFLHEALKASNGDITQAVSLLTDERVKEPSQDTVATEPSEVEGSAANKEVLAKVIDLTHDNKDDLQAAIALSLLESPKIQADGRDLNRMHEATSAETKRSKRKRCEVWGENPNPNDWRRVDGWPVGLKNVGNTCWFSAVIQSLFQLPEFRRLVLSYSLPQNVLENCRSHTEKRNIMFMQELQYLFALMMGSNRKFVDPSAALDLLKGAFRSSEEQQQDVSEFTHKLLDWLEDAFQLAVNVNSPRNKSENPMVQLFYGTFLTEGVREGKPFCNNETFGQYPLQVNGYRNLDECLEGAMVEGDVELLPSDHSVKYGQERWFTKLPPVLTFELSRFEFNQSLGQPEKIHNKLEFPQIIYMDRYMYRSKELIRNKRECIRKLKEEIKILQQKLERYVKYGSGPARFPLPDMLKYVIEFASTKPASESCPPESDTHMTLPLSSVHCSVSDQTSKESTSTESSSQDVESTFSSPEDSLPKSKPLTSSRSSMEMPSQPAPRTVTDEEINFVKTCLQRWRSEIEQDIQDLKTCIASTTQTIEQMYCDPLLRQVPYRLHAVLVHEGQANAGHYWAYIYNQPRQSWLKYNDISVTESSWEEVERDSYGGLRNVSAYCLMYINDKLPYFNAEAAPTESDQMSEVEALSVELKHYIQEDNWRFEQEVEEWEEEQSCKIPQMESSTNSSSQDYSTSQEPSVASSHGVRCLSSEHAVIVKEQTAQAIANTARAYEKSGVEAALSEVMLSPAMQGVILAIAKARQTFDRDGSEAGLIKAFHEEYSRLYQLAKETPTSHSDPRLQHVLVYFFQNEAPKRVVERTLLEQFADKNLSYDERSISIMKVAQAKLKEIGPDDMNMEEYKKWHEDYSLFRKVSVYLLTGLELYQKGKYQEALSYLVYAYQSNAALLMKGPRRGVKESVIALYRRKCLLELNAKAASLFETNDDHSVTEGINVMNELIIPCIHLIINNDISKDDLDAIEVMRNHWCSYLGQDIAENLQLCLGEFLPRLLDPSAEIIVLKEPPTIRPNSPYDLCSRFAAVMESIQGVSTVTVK
Briefly: Ubiquitin-Rhodamine 110 Assay for USP28 Activity, Example A-1(b). In kind it is biochemical. Particulars: Ubiquitin-Rhodamine 110 assay, Example A-1(b). In short, it runs like this:
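Single-point screening used 10 μM compound with 90 min room-temperature incubation; follow-up dose-responses (25 μM top, 3-fold) used 75 pM USP28 1-1077 construct, 30 min compound preincubation, 25 nM Ub-Rh110, 20 min reaction, citric acid quench. Rh110 fluorescence normalised to no-enzyme and DMSO controls; IC50 from 4-parameter logistic fit.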
On to `Cc1cnc2c(N)c(C(=O)N[C@@H]3CCc4cc(N5CC6CCC(C5)N6)ccc4C3)sc2n1` (single isomer, unassigned) [Example 11-8], for which the “USP28 A-1(b) IC50 range” value is given as “+ (>2 μM)”.

Turning to `Cc1ccc2c(N)c(C(=O)N[C@@H]3CCc4cc(N5CCNCC5)cc(F)c4C3)sc2n1` (single isomer, unassigned) [Example 11-12], the “USP28 A-1(b) IC50 range” value is on record as “++ (0.2-2 μM)”. The same measure, in the same setting: then `Cc1ccc2c(N)c(C(=O)N[C@@H]3COc4cc(N5CCNCC5)cc(F)c4C3)sc2n1` [Example 10-5, (S)-3-amino-N-(5-fluoro-7-(piperazin-1-yl)chroman-3-yl)-6-methylthieno[2,3-b]pyridine-2-carboxamide], with “+ (>2 μM)”; and `Cc1ccc2c(N)c(C(=O)N[C@H]3CCc4cc(N5CC6CCC(C5)N6)ccc4C3)sc2n1` [Example 11-1, N-((2S)-6-(3,8-diazabicyclo[3.2.1]octan-3-yl)-1,2,3,4-tetrahydronaphthalen-2-yl)-3-amino-6-methylthieno[2,3-b]pyridine-2-carboxamide], with “+++ (0.05-0.2 μM)”. Consider `Cc1nc2sc(C(=O)N[C@H]3CCc4cc(N5CC6CCC(C5)N6)ccc4C3)c(N)c2cc1F` (single isomer, unassigned) [Example 11-3], for which the “USP28 A-1(b) IC50 range” value is reported as “++ (0.2-2 μM)”. For the compound `Cc1cnc2c(N)c(C(=O)N[C@H]3COc4cc(N5CCNCC5)cc(F)c4C3)sc2n1` [Example 10-10, (R)-7-amino-N-(5-fluoro-7-(piperazin-1-yl)chroman-3-yl)-3-methylthieno[2,3-b]pyrazine-6-carboxamide], the “USP28 A-1(b) IC50 range” value was “+++ (0.05-0.2 μM)”. Still for that read-out and setting: under `Cc1cnc2c(N)c(C(=O)N[C@@H]3CCc4cc(N5CCNC[C@@H](O)C5)ccc4C3)sc2n1` (single isomer, unassigned) [Example 7-5] stands “++ (0.2-2 μM)”; under `COc1ccc2c(N)c(C(=O)N[C@H]3COc4cc(N5CCNCC5)cc(F)c4C3)sc2n1` [Example 10-11, (R)-3-amino-N-(5-fluoro-7-(piperazin-1-yl)chroman-3-yl)-6-methoxythieno[2,3-b]pyridine-2-carboxamide], “++ (0.2-2 μM)”. Consider `CCn1ccc2cc(C(=O)N[C@H]3CCc4cc(N5CC6CCC(C5)N6)ccc4C3)nnc21` (single isomer, unassigned) [Example 11-24], for which the “USP28 A-1(b) IC50 range” value is “+ (>2 μM)”. On the same count and under the same terms, under `Cc1ccc2c(N)c(C(=O)N[C@H]3COc4cc(C5(F)CCNCC5)ccc4C3)sc2n1` [Example 8-1, (R)-3-Amino-N-(7-(4-fluoropiperidin-4-yl)chroman-3-yl)-6-methylthieno[2,3-b]pyridine-2-carboxamide] stands “++++ (0.001-0.05 μM)”.

With `Cc1cc(C(F)(F)F)c2c(N)c(C(=O)N[C@H]3COc4cc(N5CCNCC5)cc(F)c4C3)sc2n1` [Example 10-14, (R)-3-amino-N-(5-fluoro-7-(piperazin-1-yl)chroman-3-yl)-6-methyl-4-(trifluoromethyl)thieno[2,3-b]pyridine-2-carboxamide], the “USP28 A-1(b) IC50 range” value is reported as “++ (0.2-2 μM)”. As for `Cc1cnc2c(N)c(C(=O)N[C@H]3CCc4cc(N5CC6CCC(C5)N6)cc(F)c4C3)sc2n1` (single isomer, unassigned) [Example 11-13], the “USP28 A-1(b) IC50 range” value was “+ (>2 μM)”. For `Cc1ccc2c(N)c(C(=O)N[C@@H]3CCc4cc(N5CC6CCC(C5)N6)ccc4C3)sc2n1` [Example 11-2, N-((2R)-6-(3,8-diazabicyclo[3.2.1]octan-3-yl)-1,2,3,4-tetrahydronaphthalen-2-yl)-3-amino-6-methylthieno[2,3-b]pyridine-2-carboxamide], the “USP28 A-1(b) IC50 range” value is listed as “++ (0.2-2 μM)”. Turning to `Cc1ccc2c(N)c(C(=O)N[C@H]3CCc4cc(N5CCN[C@@H](CO)C5)ccc4C3)sc2n1` (single isomer, unassigned) [Example 7-9], the “USP28 A-1(b) IC50 range” value is “+ (>2 μM)”. The same measure, in the same setting: under `COc1ccc2c(N)c(C(=O)N[C@H]3CCc4cc(N5CC6CCC(C5)N6)ccc4C3)sc2n1` (single isomer, unassigned) [Example 11-5] stands “++ (0.2-2 μM)”; under `Cc1ccc2c(N)c(C(=O)N[C@@H]3CCc4cc(N5CCN[C@@H](CO)C5)ccc4C3)sc2n1` (single isomer, unassigned) [Example 7-11], “++ (0.2-2 μM)”. On the same count and under the same terms, then `Cc1cnc2c(N)c(C(=O)N[C@H]3CCc4cc(N5CC6CCC(C5)N6)ccc4C3)sc2n1` (single isomer, unassigned) [Example 11-7], with “++ (0.2-2 μM)”; and `Cc1ccc2c(N)c(C(=O)N[C@H]3COc4cc(N5CC6CNCC(C5)O6)cc(F)c4C3)sc2n1` [Example 10-6, N-((3R)-7-(9-oxa-3,7-diazabicyclo[3.3.1]nonan-3-yl)-5-fluorochroman-3-yl)-3-amino-6-methylthieno[2,3-b]pyridine-2-carboxamide], with “++++ (0.001-0.05 μM)”.

Staying with this assay, now noted: Ubiquitin-Rhodamine 110 assay, format Example A-1(b).
Consider `Cc1ccc2c(N)c(C(=O)N[C@H]3CCc4cc(N5C6CNCC5C6)ccc4C3)sc2n1` (single isomer, unassigned) [Example 11-35], for which the “USP28 A-1(b) IC50 range” value is listed as “++ (0.2-2 μM)”. Turning to `Cc1ccc2c(N)c(C(=O)N[C@H]3COc4c(ccc(N5CCNCC5)c4Cl)C3)sc2n1` [Example 13_7, (R)-3-amino-N-(8-chloro-7-(piperazin-1-yl)chroman-3-yl)-6-methylthieno[2,3-b]pyridine-2-carboxamide], the “USP28 A-1(b) IC50 range” value is on record as “+++ (0.05-0.2 μM)”.

On to `Cc1ccc2c(N)c(C(=O)N[C@H]3CCc4c(ccc(N5CCNCC5)c4F)C3)sc2n1` (single isomer, unassigned) [Example 21-6], for which the “USP28 A-1(b) IC50 range” value is on record as “++ (0.2-2 μM)”.

Regarding `Cc1ccc2c(N)c(C(=O)N[C@@H]3COc4c(ccc(N5CCNCC5)c4Cl)C3)sc2n1` [Example 13-8, (S)-3-amino-N-(8-chloro-7-(piperazin-1-yl)chroman-3-yl)-6-methylthieno[2,3-b]pyridine-2-carboxamide], the “USP28 A-1(b) IC50 range” value is “+ (>2 μM)”. As to `Cc1ccc2c(N)c(C(=O)N[C@H]3CCc4c(ccc(N5CC6CCC(C5)N6)c4F)C3)sc2n1` (single isomer, unassigned) [Example 21-2], the “USP28 A-1(b) IC50 range” value is reported as “++ (0.2-2 μM)”.

As to `Cc1ccc2c(N)c(C(=O)N[C@@H]3COc4cc(N5CCNCC5)c(Cl)cc4C3)sc2n1` (single isomer, unassigned) [Example 13-6], the “USP28 A-1(b) IC50 range” value is “+++ (0.05-0.2 μM)”.

For `Cc1ccc2c(N)c(C(=O)N[C@@H]3CCc4cc(N5CC6CCC(C5)N6)c(F)cc4C3)sc2n1` (single isomer, unassigned) [Example 21-3], the “USP28 A-1(b) IC50 range” value is “++++ (0.001-0.05 μM)”.

On to `Cc1ccc2c(N)c(C(=O)N[C@H]3CCc4cc(N5CCNCC5)c(F)cc4C3)sc2n1` (single isomer, unassigned) [Example 21-8], for which the “USP28 A-1(b) IC50 range” value is on record as “+ (>2 μM)”. Still for that read-out and setting: then `Cc1ccc2c(N)c(C(=O)N[C@@H]3CCc4c(ccc(N5CC6CCC(C5)N6)c4F)C3)sc2n1` (single isomer, unassigned) [Example 21-1], with “++ (0.2-2 μM)”; and `Cc1ccc2c(N)c(C(=O)N[C@H]3COc4cc(N5CC6CCC(C5)N6)c(F)c(F)c4C3)sc2n1` [Example 13-3, N-((3R)-7-(3,8-diazabicyclo[3.2.1]octan-3-yl)-5,6-difluorochroman-3-yl)-3-amino-6-methylthieno[2,3-b]pyridine-2-carboxamide], with “+ (>2 μM)”.

In the case of `Cc1ccc2c(N)c(C(=O)N[C@@H]3CCc4cc(N5CCNCC5)cnc4C3)sc2n1` (single isomer, unassigned) [Example 15-1], the “USP28 A-1(b) IC50 range” value is listed as “+ (>2 μM)”. On the same count and under the same terms, then `Cc1ccc2c(N)c(C(=O)N[C@@H]3CCc4cc(N5C6CNCC5C6)ccc4C3)sc2n1` (single isomer, unassigned) [Example 11-36], with “++ (0.2-2 μM)”.

Take `Cc1ccc2c(N)c(C(=O)N[C@@H]3COc4cc(N5CC6CCC(C5)N6)c(F)c(F)c4C3)sc2n1` [Example 13-4, N-((3S)-7-(3,8-diazabicyclo[3.2.1]octan-3-yl)-5,6-difluorochroman-3-yl)-3-amino-6-methylthieno[2,3-b]pyridine-2-carboxamide]: the “USP28 A-1(b) IC50 range” value was “++++ (0.001-0.05 μM)”.
